Measured values reported in patent publication US11780826B2 (Amgen Inc., priority 2017, dated 2023).

System: Bovine cardiac myofibrils
Experiment: In vitro model of dose-dependent myofibril ATPase modulation (AC1.4, pyruvate kinase/lactate dehydrogenase-coupled ATPase assay at pCa25)
Assay type: biochemical
Conditions: concentration at which ATPase activity was 1.4-fold higher than the bottom of the dose curve, mean of a minimum of two independent tests
Summary of the method: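 Bovine cardiac myofibrils, detergent-treated; 0.25-1.0 mg/ml. Buffer: K-PIPES 12 mM, MgCl2 2 mM, DTT 1 mM, BSA 0.1 mg/ml, pH 6.80, 22° C; Ca2+ set by EGTA/CaCl2. ATP 1 mM, NADH/PEP-coupled, A340. 4-parameter fit; n≥2.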

Compound | AC1.4 [µM]
Cc1nnc(CNS(=O)(=O)N2CCC[C@H](C(=O)N3CCC[C@@H]3C(=O)NCc3ccc(C(F)(F)F)cc3)C2)o1 [Example 774, 1-(((3S)-1-(((5-methyl-1,3,4-oxadiazol-2-yl)methyl)sulfamoyl)-3-piperidinyl)carbonyl)-N-(4-(trifluoromethyl)benzyl)-D-prolinamide] | 8.3045
COC(=O)[C@H]1C[C@H](S(=O)(=O)N2CCC[C@H](C(=O)N3CCC[C@@H]3C(=O)NCc3ccc(C(F)(F)F)cc3)C2)C1 [Example 775, methyltrans-3-(((3S)-3-(((2R)-2-((4-(trifluoromethyl)benzyl)carbamoyl)-1-pyrrolidinyl)carbonyl)-1-piperidinyl)sulfonyl)cyclobutanecarboxylate] | 8.31
COc1ccc([C@H](NC(=O)[C@H]2CCCN2C(=O)[C@H]2CCCN(S(=O)(=O)N3CC(C#N)C3)C2)C(F)(F)F)cc1F [Example 776, 1-(((3S)-1-((3-cyano-1-azetidinyl)sulfonyl)-3-piperidinyl)carbonyl)-N-((1S)-2,2,2-trifluoro-1-(3-fluoro-4-methoxyphenyl)ethyl)-D-prolinamide] | 8.3695
NS(=O)(=O)c1cc(C(=O)N2CCC[C@@H]2C(=O)N[C@@H](c2ccc(C(F)(F)F)cc2F)C2CC2)c(Cl)cc1F [Example 777, 1-(2-chloro-4-fluoro-5-sulfamoylbenzoyl)-N-((R)-cyclopropyl(2-fluoro-4-(trifluoromethyl)phenyl)methyl)-D-prolinamide] | 8.3805
CS(=O)(=O)c1cc(C(=O)N2[C@@H](C(=O)N[C@@H](c3cc(F)c(Cl)cc3F)C3CC3)C[C@@H]3C[C@@H]32)ccn1 [Example 779, (1S,3R,5S)-N-((R)-(4-chloro-2,5-difluorophenyl)(cyclopropyl)methyl)-2-((2-(methylsulfonyl)-4-pyridinyl)carbonyl)-2-azabicyclo[3.1.0]hexane-3-carboxamide] | 8.423
O=C(NCc1ccc(C(F)(F)F)cc1)[C@H]1CCCN1C(=O)[C@H]1CCCN(S(=O)(=O)C2CCC2)C1 [Example 780, (R)-1-((S)-1-(cyclobutylsulfonyl)piperidine-3-carbonyl)-N-(4-(trifluoromethyl)benzyl)pyrrolidine-2-carboxamide] | 8.4235
N#CC1CN(S(=O)(=O)N2CCC[C@H](C(=O)N3CCC[C@@H]3C(=O)NCc3cccc(OC(F)F)c3)C2)C1 [Example 781, 1-(((3S)-1-((3-cyano-1-azetidinyl)sulfonyl)-3-piperidinyl)carbonyl)-N-(3-(difluoromethoxy)benzyl)-D-prolinamide] | 8.59
CC(=O)NC1CN(S(=O)(=O)N2CCC[C@H](C(=O)N3CCC[C@@H]3C(=O)NCc3ccc(C(F)(F)F)cc3)C2)C1 [Example 782, 1-(((3S)-1-((3-(acetylamino)-1-azetidinyl)sulfonyl)-3-piperidinyl)carbonyl)-N-(4-(trifluoromethyl)benzyl)-D-prolinamide] | 8.6395
COc1ccc2c(c1)[C@H](NC(=O)[C@H]1CCCN1C(=O)[C@H]1CCCN(S(=O)(=O)N3CC(C#N)C3)C1)CCO2 [Example 783, 1-(((3S)-1-((3-cyano-1-azetidinyl)sulfonyl)-3-piperidinyl)carbonyl)-N-((4R)-6-methoxy-3,4-dihydro-2H-chromen-4-yl)-D-prolinamide] | 8.7825
COc1cccc(C(=O)N2CCC[C@@H]2C(=O)N[C@@H](c2ccc(C(F)(F)F)cc2F)C2CC2)c1 [Example 784, N-((R)-cyclopropyl(2-fluoro-4-(trifluoromethyl)phenyl)methyl)-1-(3-methoxybenzoyl)-D-prolinamide] | 8.852

Continued, values first:

AC1.4 [µM] | Compound
8.8883 | C[C@@H](NC(=O)[C@H]1CCCN1C(=O)c1cccc(S(=O)(=O)N2CC(C#N)C2)c1)c1ccccc1 [Example 785, 1-((3-((3-cyano-1-azetidinyl)sulfonyl)phenyl)carbonyl)-N-((1R)-1-phenylethyl)-D-prolinamide]
8.9175 | CCc1ccnc(C(=O)N2[C@@H](C(=O)N[C@@H](c3ccc(C(F)(F)F)cc3F)C3COC3)C[C@H]3C[C@H]32)c1 [Example 786, (1R,3R,5R)-2-((4-ethyl-2-pyridinyl)carbonyl)-N-((R)-(2-fluoro-4-(trifluoromethyl)phenyl)(3-oxetanyl)methyl)-2-azabicyclo[3.1.0]hexane-3-carboxamide]
8.931 | O=C(NCc1ccc(C(F)(F)F)cc1)[C@H]1CCCN1C(=O)[C@H]1CCCN(S(=O)(=O)N2CC(CC(F)(F)F)C2)C1 [Example 787, 1-(((3S)-1-((3-(2,2,2-trifluoroethyl)-1-azetidinyl)sulfonyl)-3-piperidinyl)carbonyl)-N-(4-(trifluoromethyl)benzyl)-D-prolinamide]
8.9395 | COCC1CN(S(=O)(=O)N2CCC[C@H](C(=O)N3CCC[C@@H]3C(=O)NCc3ccc(C(F)(F)F)cc3)C2)C1 [Example 788, 1-(((3S)-1-((3-(methoxymethyl)-1-azetidinyl)sulfonyl)-3-piperidinyl)carbonyl)-N-(4-(trifluoromethyl)benzyl)-D-prolinamide]
8.9635 | O=C(N[C@@H](c1ccc(C(F)(F)F)cc1F)C1COC1)[C@H]1C[C@H]2C[C@H]2N1C(=O)c1cccc(C(F)(F)F)n1 [Example 789, (1R,3R,5R)-N-((R)-(2-fluoro-4-(trifluoromethyl)phenyl)(3-oxetanyl)methyl)-2-((6-(trifluoromethyl)-2-pyridinyl)carbonyl)-2-azabicyclo[3.1.0]hexane-3-carboxamide]
8.9725 | N#CC1CN(S(=O)(=O)N2CCN[C@H](C(=O)N3CCC[C@@H]3C(=O)NCc3cc(Cl)cc(Cl)c3)C2)C1 [Example 790, 1-(((2S)-4-((3-cyano-1-azetidinyl)sulfonyl)-2-piperazinyl)carbonyl)-N-(3,5-dichlorobenzyl)-D-prolinamide]
9.071 | Cc1ccc([C@H](NC(=O)[C@H]2C[C@H](F)CN2C(=O)c2cccc(S(C)(=O)=O)c2)C2CC2)cc1F [Example 792, (4S)-N-((R)-cyclopropyl(3-fluoro-4-methyIphenyl)methyl)-4-fluoro-1-(3-(methylsulfonyl)benzoyl)-D-prolinamide]
9.129 | CCS(=O)(=O)c1cccc(C(=O)N2CCC[C@@H]2C(=O)NCc2ccc(C(F)(F)F)cc2)c1 [Example 793, 1-(3-(ethylsulfonyl)benzoyl)-N-(4-(trifluoromethyl)benzyl)-D-prolinamide]
9.2425 | CC(C)(O)c1cccc(C(=O)N2CCC[C@@H]2C(=O)N[C@@H](c2ccc(C(F)(F)F)cc2F)C2CC2)c1 [Example 794, N-((R)-cyclopropyl(2-fluoro-4-(trifluoromethyl)phenyl)methyl)-1-(3-(2-hydroxy-2-propanyl)benzoyl)-D-prolinamide]
9.3255 | CS(=O)(=O)c1cc(C(=O)N2[C@@H](C(=O)N[C@@H](c3ccc(Cl)c(F)c3)C3CC3)C[C@H]3C[C@H]32)ccn1 [Example 795, (1R,3R,5R)-N-((R)-(4-chloro-3-fluorophenyl)(cyclopropyl)methyl)-2-((2-(methylsulfonyl)-4-pyridinyl)carbonyl)-2-azabicyclo[3.1.0]hexane-3-carboxamide]
